Test results: patent publication US11306122B2, “Compositions and methods of inhibiting the binding of plasma IgG autoantibodies to serotonin 2A receptor” (United States Government As Represented By The Department …, priority 2019, dated 2022)
Numbered stars: 1 amine (or outer) side, 2 acyl side, 3 side chain; on linkers, the order of the positions; unused ones are H or OH. Bridge positions count the residues as written; N and C are the ends. Square brackets hold non-standard residues; d marks the D form. Peptide text beside a SMILES is read from it. X1 = CC(=O)NC(C(=O)OC(C(C)C)C(N[*:1])C(=O)[*:2])C(O)C(C)C; PhLac = O=C(O)[CH](O)Cc1ccccc1; NMeT = CN[CH](C(=O)O)[CH](C)O; NMeA = CN[CH](C)C(=O)O; NMeDha = C=C(NC)C(=O)O

How the values were obtained:
[1] = system: mouse N2A neuroblastoma cells; assay: Acute N2A neurite retraction induced by TBI patient 5-HT2A receptor autoantibodies; type: cell-based; settings: for effect on TBI autoantibody-induced acute neurite retraction: M100907 250-500 nM, Y27632 10 μM, other concentrations as in Table 17; for % of autoantibody Neurite Retraction from TBI patients: 60 nM IgG of representative TBI patient; for effect on neurite retraction in TBI patient autoantibodies, Example 4: 10 μM Y27632, 1 μM YM25489, 1 μM U73122, 50 μM 2-APB; for % of 5-HT2A receptor Autoantibody Neurite Retraction: 60 nM TBI autoantibodies (alone 100%)
Protocol: Acute neurite retraction. Mouse N2A neuroblastoma cells were maintained in Dulbecco's minimal essential medium with 10% fetal calf serum. […] Neurite retraction represents average neurite length-shortening after five minutes exposure to TBI (5-HT2A receptor) autoantibodies (60-100 nM) in the presence or absence of various G-protein coupled receptor (GPCR) or signaling pathway antagonists.
A 60 nanomolar concentration of the IgG autoantibodies (e.g., 5-HT2A receptor autoantibodies) from a representative TBI patient was incubated with N2A cells in the presence or absence of the indicated concentration of the selective GPCR antagonist.
A 60 nanomolar concentration of 5-HT2A receptor autoantibodies from TBI patients was incubated with N2A cells in the presence or absence of the indicated concentration of Gq11/PLC-gamma/IP3R antagonist or RhoA/Rho kinase pathway inhibitor.
Neurovascular 5-hydroxytryptamine (serotonin) 2A receptor (5-HT2AR) autoantibodies were previously reported to function as long-acting agonists in diabetic angiopathy and subsets of major depression, Parkinson's disease or dementia. The 5-HT2A receptor is highly expressed in specific brain regions underlying cognition, perception and mood regulation. Long-lasting 5-HT2A receptor activation by circulating autoantibodies might contribute to pathophysiology via central and peripheral mechanisms. Since the risk or incidence of Parkinson's disease, depression and dementia increase following traumatic brain injury (TBI), circulating neurotoxic autoantibodies (e.g., 5HT2AR) were tested, characterized and compared with autoantibodies from TBI patients vs. diabetic subsets with or without neurodegenerative disorders. Plasma IgG autoantibodies (e.g., 5-HT2AR autoantibodies) were obtained by protein-A affinity chromatography in ten male TBI patients mean age 64 years old.

[2] = system: N2A mouse neuroblastoma cells; assay: Acute N2A neurite retraction induced by schizophrenia plasma autoantibodies; type: cell-based; settings: for % AutoAB-induced neurite retraction: 20 nM Pt 1 schizophrenia AutoAB; for % of AutoAB-induced neurite retraction: 40 nM SCZ IgG (N = 2), alone 100 ± 0%; for effect on schizophrenia autoantibody-induced neurite retraction: M100907 two-hundred nanomolar, Y27632 ten micromolar, Y254890 one micromolar
Protocol: (§1) Methods: Plasma from five older adults with chronic schizophrenia and eight age-matched patients having another neuropsychiatric, immune or metabolic disorder was subjected to Protein-A affinity chromatography to obtain IgG autoantibodies. Mean neurite retraction (5 minutes) or cell survival (24 hours) was determined in mouse N2A neuroblastoma cells incubated with autoantibodies in the presence or absence of specific antagonists of the Gq/11/PLC/IP3R signaling pathway, Gi-coupled, beta-arrestin2-directed pathways, or LY379268.
Acute neurite retraction assay. Percent of basal neurite length in N2A cells expressing one or more proximally-located dendrite-like process was determined after interval exposure to test substances (Zimering M B, J Endocrinol Diabetes. 2018; 5(2): 10).
A twenty nanomolar concentration of protein-A eluate fraction of plasma from Pt 1 with schizophrenia was incubated with N2A cells in the presence or absence of the indicated concentration of each Gq/11, GPCR antagonist. Results are the mean+/−SD of two experiments.
A forty nanomolar concentration of plasma autoantibodies (AutoAB) from Pt 1 or Pt, schizophrenia, was incubated in the presence or absence of the indicated concentration of RhoA/Rho kinase (ROCK) inhibitor, or individual antagonists of the Gq11/PLC/IP3R signaling pathway. […]

N2A cells [3] = assay: Neurite retraction in N2A cells induced by 5-HT2AR agonists (DOI, serotonin); type: cell-based, mouse
From the text: The mGlu2/3R agonist LY379268 was previously reported to cause positive allosteric modulation of the 5HT2AR protomer affinity at 5HT2AR/mGlu2R heteromers (González-Maeso J, et al., Nature. 2008; 452(7183):93-97).

[4] = system: N2A mouse neuroblastoma cells; assay: N2A cell survival (MTT) promoted by schizophrenia/psychosis plasma autoantibodies; type: cell-based; settings: LY379268 5 μM, pertussis toxin 100 ng/mL; for effect alone on N2A cell survival: without autoantibodies; for effect on autoantibody-induced N2A pro-survival/proliferation (words): M100907 500 nM, LY294002 20 μM, 24 hours
Protocol: as §1
N2A cell survival. MTT assay was performed 24 hours after incubation with test substances (Zimering M B, J Endocrinol Diabetes. 2018; 5(2): 10).
Serotonin 2A receptor activation leads to f3-arrestin-2-mediated desensitization and receptor internalization. However, β-arrestin-2 can also couple with diverse signaling pathways leading to enhanced cell proliferation and/or survival promotion.

N2A cells [5] = assay: N2A cell loss (MTT) induced by TBI patient autoantibodies; type: cell-based, mouse; settings: M100907 250 nM (eight of eight patients); prazosin 850 nM (n=5); one-fiftieth dilution; 24 hours
Protocol: Cell survival was determined with MTT assay.
Mouse neuroblastoma cell loss. N2A cell loss was quantified using an MTT (3-(4,5-dimethylthiazol-2-yl)-2,5-diphenyltetrazolium bromide) tetrazolium reduction assay after overnight incubation with autoantibodies from TBI patients (Zimering M B, Endocrinol Diabetes Metab J. 2019 August; 3(4) pii: 118. Epub 2019 Aug. 14).

[6] = system: mouse N2A neuroblastoma cells; assay: Acute N2A neurite retraction induced by diabetic pathologies' IgG autoantibodies; type: cell-based; settings: for Mean acute N2a neurite retraction (%): Pt 1 IgG one-fortieth dilution + 20 μg/mL peptide, IgG alone 100 + 0%; for effect on Patient 1 IgG autoantibody-induced N2A neurite retraction: short peptides at 20 μg/mL, pre-incubated 5 minutes, Q..N-18 dose series
Protocol: Methods: Plasma or serum from fifty-six older adults with (n=49) or without (n=7) type 2 diabetes was subjected to Protein-A affinity chromatography to obtain IgG autoantibodies. Binding to a synthetic 18-meric linear synthetic peptide (SEQ ID NO: 1) corresponding to the second extracellular loop of the 5-hydroxytryptamine 2A receptor was tested in a 1/40th or higher dilution of the protein-A eluates. Mean acute neurite retraction (5 minutes) or cell survival (16-24 hours) was determined in mouse N2A neuroblastoma cells incubated with IgG autoantibodies in the presence or absence of three short, linear overlapping peptides comprising the second extracellular loop of the human 5-hydroxytryptamine 2A receptor (SEQ ID NOs: 2, 3 and 4).
N2A Acute Neurite Retraction assay. Acute neurite retraction assay was performed as described in Hu G, et al. Diabetes Care 2007; 30(4): 842-847.
Epitope mapping of region within 5-HT2A receptor, linear synthetic 5-HT2A receptor peptide targeted by autoantibodies. Next an epitope analysis was performed to determine the subregion within the 5-HT2A receptor second extracellular domain that binds to the type 2 diabetes pathologies' autoantibodies. Three overlapping short peptides were synthesized (SEQ ID NOs: 2, 3, and 4). N2a cells expressing neurites were pre-incubated with each of the peptides separately (for 5 minutes) prior to the addition of Patient 1, […] hypertension IgG autoantibodies to determine which of the three peptides could compete for binding to the test diabetic pathologies' autoantibodies causing inhibition of IgG autoantibody-induced neurite retraction.
The indicated concentration of the Q . . . […] Acute N2A neurite retraction was assessed after 5 minutes.

[7] = Patient 1 DM refractory hypertension autoantibody, one sixtieth dilution, 5 minutes, 0 μg/mL peptide: 90 + 5%

## COc1ccccc1Oc1c(NS(=O)(=O)c2ccc(C(C)(C)C)cc2)nc(-c2ncccn2)nc1OCCO [Bosentan]
[1]
  effect on TBI autoantibody-induced acute neurite retraction: little or no significant protective effect
[1]; antagonist 10 μM
  % of autoantibody Neurite Retraction from TBI patients: 80%
[2]; antagonist 10 μM
  % AutoAB-induced neurite retraction: 94 ± 7%

## COc1cc(CC(C)N)c(OC)cc1I (centres unmarked) [DOI, 1-[2,5-dimethoxy-4-iodophenyl]-2-aminopropane]
N2A cells [3]; in the absence of LY379268
  concentration of DOI needed to evoke 25-30% neurite inhibition: 10 µM
N2A cells [3]; in the presence of (10 μM) LY379268
  concentration of DOI needed to evoke 25-30% neurite inhibition: 5 µM
N2A cells [3]; saturating concentration, 20 μM
  peak neurite retraction: 40%

## O=C(c1ccc(F)cc1)C1CCN(CCn2c(=O)[nH]c3ccccc3c2=O)CC1 [Ketanserin]
[1]
  effect on TBI autoantibody-induced acute neurite retraction: substantially blocked
[1]; antagonist 1 μM
  % of autoantibody Neurite Retraction from TBI patients: 26%
[1]; antagonist 2 μM
  % of autoantibody Neurite Retraction from TBI patients: 18%
[2]; antagonist 500 nM
  % AutoAB-induced neurite retraction: 43 ± 11%

## N[C@@]1(C(=O)O)CO[C@H]2[C@H](C(=O)O)[C@H]21 [LY379268]
[2]; 10 μM LY379268, n=12, IgG alone 52±7%
  mean level of neurite retraction in the presence of LY379268: 74±10%
[2]; 5-101.1M concentrations (so in the source), without autoantibodies
  effect alone on neurite retraction: no effect
[2]; 7.5-10 μM LY379268, mean [IgG] 17 ± 6 nM, N = 12 patients, five minutes, Pt IgG alone 52 ± 7%
  Mean N2A neurite retraction, Pt IgG + LY379268: 74 ±10%^∧
[2]; 10 micromolar LY379268, Pt 1 SCZ IgG, without LY379268: one microgram per milliliter (~7 nM)
  IgG autoantibody concentration giving 50% inhibition of N2A neurite outgrowth in the presence of LY379268: ~0.5 microgram per milliliter
[2]; 10 micromolar LY379268, Pt 1 SCZ IgG, without LY379268 ~7 nM
  IgG autoantibody concentration giving 50% inhibition of N2A neurite outgrowth in the presence of LY379268, molar: 3.5 nM
[4]
  effect alone on N2A cell survival: no effect
  effect on autoantibody-induced N2A pro-survival/proliferation (words): significantly blocked

## CCCCc1nc(Cl)c(CO)n1Cc1ccc(-c2ccccc2-c2nn[nH]n2)cc1 [Losartan]
[2]; antagonist 10 μM
  % AutoAB-induced neurite retraction: 72 ± 8%

## NCCOB(c1ccccc1)c1ccccc1 [Peptide 2-APB]
[1]
  effect on neurite retraction in TBI patient autoantibodies, Example 4: significantly blocked
[1]; inhibitor 25 μM
  % of 5-HT2A receptor Autoantibody Neurite Retraction: 0%
[2]; inhibitor 50 μM
  % of AutoAB-induced neurite retraction: 17 ± 1.9%

## COc1ccc2c(c1)CC[C@@H]1[C@@H]2CC[C@]2(C)[C@@H](NCCCCCCN3C(=O)C=CC3=O)CC[C@@H]12 [Peptide U73122]
[1]
  effect on neurite retraction in TBI patient autoantibodies, Example 4: significantly blocked
[1]; inhibitor 1 μM
  % of 5-HT2A receptor Autoantibody Neurite Retraction: 10%
[2]; inhibitor 1 μM
  % of AutoAB-induced neurite retraction: 28 ± 15%

## C[C@@H](N)[C@H]1CC[C@H](C(=O)Nc2ccncc2)CC1 [Peptide Y27632]
[2]
  effect on schizophrenia autoantibody-induced neurite retraction: completely prevented
[2]; inhibitor 10 μM
  % of AutoAB-induced neurite retraction: 0 ± 0%

## COc1cc2nc(N3CCN(C(=O)c4ccco4)CC3)nc(N)c2cc1OC [Prazosin]
[2]; antagonist 1 μM
  % AutoAB-induced neurite retraction: 72 ± 10%
N2A cells [5]
  effect on accelerated N2A cell death/loss by TBI autoantibodies: much less protective effect

## Cc1cc(NC(=O)Nc2ccc3c(ccn3C)c2)sn1 [SB204741]
[1]
  effect on TBI autoantibody-induced acute neurite retraction: no significant protective effect
[1]; antagonist 1 μM
  % of autoantibody Neurite Retraction from TBI patients: 70%
[2]; antagonist 1 μM
  % AutoAB-induced neurite retraction: 100 ± 0%

## C=C1C(=O)NC(C)C(=O)N(C)C(C)C(=O)NC(C(OC(=O)C(NC(C)=O)C(O)C(C)C)C(C)C)C(=O)N(C)C(C(C)OC)C(=O)OC(C)C(NC(C)=O)C(=O)OC(Cc2ccccc2)C(=O)N1C (centres unmarked) [YM254890] (Ac-T[PhLac][NMeDha]A[NMeA][X1][NMeT](Me); ester 1-C; configuration not given here)
[1]
  effect on neurite retraction in TBI patient autoantibodies, Example 4: significantly blocked
[1]; inhibitor 1 μM
  % of 5-HT2A receptor Autoantibody Neurite Retraction: 11%
[2]
  effect on schizophrenia autoantibody-induced neurite retraction: completely prevented
[2]; inhibitor 1 μM
  % of AutoAB-induced neurite retraction: 0 ± 0%

## Pertussis toxin
[4]
  effect alone on N2A cell survival: no effect
  effect on autoantibody-induced N2A pro-survival/proliferation (words): significantly blocked
[4]; listed as pertussis toxin
  effect on autoantibody-induced N2A pro-survival/proliferation (words): blocked

## QDDSKVF [Peptide 3, short overlapping peptide of 5-HT2A receptor second extracellular loop]
[6]; 5 minutes
  Mean acute N2a neurite retraction (%): 87 + 19%
[6]
  effect on Patient 1 IgG autoantibody-induced N2A neurite retraction: no significant effect

## QDDSKVFKEGSCLLADDN [Peptide 1]
[6]; [7]
  acute N2A neurite withdrawal, autoantibody + Q...N-18 at 3 μg/mL: 25 + 7%
  acute N2A neurite withdrawal, autoantibody + Q...N-18 at 5 μg/mL: 0 + 0%
[6]
  effect on Patient 1 IgG autoantibody-induced N2A neurite retraction: dose-dependently inhibited
[6]; sixty nanomolar protein-A eluate of Patient 1 plasma
  Half-maximal inhibition of autoantibody-induced acute neurite retraction: 2 µg/mL
[6]; sixty nanomolar protein-A eluate of Patient 1 plasma, read-out: Half-maximal inhibition of autoantibody-induced acute neurite retraction, corresponding molar concentration
  IC50: ~1 µM

## VFKEGSC [Peptide 4, short overlapping peptide of 5-HT2A receptor second extracellular loop]
[6]; 5 minutes
  Mean acute N2a neurite retraction (%): 88 + 13%
[6]
  effect on Patient 1 IgG autoantibody-induced N2A neurite retraction: no significant effect
